Test results published in the NIST ThermoML archive (doi:10.1021/je700598v).
Numbers after ± are expanded uncertainties.

Test: cn = amount concentration of the nth substance listed, in mol/dm3
Details: 101 kPa, Liquid; for viscosity: Capillary tube (Ostwald / Ubbelohde) method; for mass density: Pycnometric method; for binary diffusion coefficient: Taylor dispersion method

OC[C@H]1O[C@@H]2O[C@H]3[C@H](O)[C@@H](O)[C@@H](O[C@H]4[C@H](O)[C@@H](O)[C@@H](O[C@H]5[C@H](O)[C@@H](O)[C@@H](O[C@H]6[C@H](O)[C@@H](O)[C@@H](O[C@H]7[C@H](O)[C@@H](O)[C@@H](O[C@H]8[C@H](O)[C@@H](O)[C@@H](O[C@H]9[C@H](O)[C@@H](O)[C@@H](O[C@H]1[C@H](O)[C@H]2O)O[C@@H]9CO)O[C@@H]8CO)O[C@@H]7CO)O[C@@H]6CO)O[C@@H]5CO)O[C@@H]4CO)O[C@@H]3CO [γ-cyclodextrin] + O
viscosity (298.15 K, c1 = 0.00186): 0.9975 ± 0.0079 mPa·s
viscosity (298.15 K, c1 = 0.004979): 0.999 ± 0.0079 mPa·s
viscosity (298.15 K, c1 = 0.007923): 1.001 ± 0.008 mPa·s
viscosity (298.15 K, c1 = 0.009981): 1.002 ± 0.008 mPa·s
mass density (298.15 K, c1 = 0.00186): 896.2 ± 0.6 kg/m3
mass density (298.15 K, c1 = 0.004979): 906.1 ± 0.6 kg/m3
mass density (298.15 K, c1 = 0.007923): 919.2 ± 0.61 kg/m3
mass density (298.15 K, c1 = 0.009981): 927 ± 0.62 kg/m3
binary diffusion coefficient (298.15 K, c1 = 0.002): 3.57e-10 m2/s
binary diffusion coefficient (298.15 K, c1 = 0.005): 3.55e-10 m2/s
binary diffusion coefficient (298.15 K, c1 = 0.008): 3.53e-10 m2/s
binary diffusion coefficient (298.15 K, c1 = 0.01): 3.52e-10 m2/s
viscosity (310.15 K, c1 = 0.00186): 0.9938 ± 0.0079 mPa·s
viscosity (310.15 K, c1 = 0.004979): 0.9949 ± 0.0079 mPa·s
viscosity (310.15 K, c1 = 0.007923): 0.997 ± 0.0079 mPa·s
viscosity (310.15 K, c1 = 0.009981): 0.9984 ± 0.008 mPa·s
mass density (310.15 K, c1 = 0.00186): 697 ± 0.54 kg/m3
mass density (310.15 K, c1 = 0.004979): 708.2 ± 0.55 kg/m3
mass density (310.15 K, c1 = 0.007923): 717.2 ± 0.57 kg/m3
mass density (310.15 K, c1 = 0.009981): 723.4 ± 0.56 kg/m3
binary diffusion coefficient (310.15 K, c1 = 0.002): 4.8e-10 m2/s
binary diffusion coefficient (310.15 K, c1 = 0.005): 4.7e-10 m2/s
binary diffusion coefficient (310.15 K, c1 = 0.008): 4.61e-10 m2/s
binary diffusion coefficient (310.15 K, c1 = 0.01): 4.53e-10 m2/s
